# Columns and labels:
# [1] = test system: alcohol-dependent participants; details: meta-analysis, 95% confidence interval 1.36-2.84; cited from earlier work
# [2] = test system: AUD patients; assay: Double-blind randomized trial of psilocybin-assisted treatment of AUD: drinking outcomes by timeline followback; type: in vivo, human; details: for % of Heavy drinking days (PHDD), mean: 32-week double-blind follow-up (weeks 5-36) after first dose, oral psilocybin 25 mg/70 kg then 25-40 mg/70 kg or diphenhydramine 50 mg then 50-100 mg at weeks 4 and 8, with psychotherapy
# Protocol: Design: In this double-blind trial, participants were offered 12 weeks of manualized psychotherapy and were randomly assigned to receive psilocybin vs. diphenhydramine during two day-long medication sessions at week 4 and 8. Outcomes were assessed over the 32-week double-blind period following the first dose of study medication.
# Interventions: Study medications were psilocybin 25 mg/70 kg vs. diphenhydramine 50 mg (first session) and psilocybin 25-40 mg/70 kg vs. diphenhydramine 50-100 mg (second session). Psychotherapy included motivational enhancement therapy and cognitive-behavioral therapy.
# Qualifying participants were assessed at screening, baseline (week 0), and weeks 4, 5, 8, 9, 12, 24, and 36. They were randomly assigned in a 1:1 ratio to receive either psilocybin or diphenhydramine, administered in two eight-hour sessions at weeks 4 and 8. All participants who completed the double-blind observation period (weeks 5-36) and still met safety criteria were offered an open-label psilocybin session at week 38, including four additional psychotherapy sessions and assessment for an additional 18 weeks. Participants received up to a total of $560 for completing assessments in the course of the trial, but were not reimbursed for attending the therapy and medication sessions.
# All participants were offered a total of 12 psychotherapy sessions from a team of two therapists including a licensed psychiatrist: 4 before the first medication session, 4 between the first and second medication sessions, and 4 in the month following the second medication session. The psychotherapy, described in detail in a separate publication,^41 included motivational interviewing and cognitive behavioral therapy for AUD as well as material designed to help the participants to manage and make use of the psychoactive effects of the study medication.
# Study medication was taken orally in a single opaque capsule of unvarying appearance and weight. Psilocybin doses were weight-based to control for participant body weight, which ranged from 49.0 to 116.1 (mean=78.3, SD=15.6) kg. Doses for the first session were psilocybin 25 mg/70 kg or diphenhydramine 50 mg. Participants received an increased dose in the second session if there were no dose-limiting adverse events and they agreed to the increase. The increased dose of psilocybin was 30 mg/70 kg if the participant's total score on the Pahnke-Richards Mystical Experience Questionnaire (MEQ)^42 was ≥0.6 in the first session (indicating a robust subjective response to the 25 mg/70 kg dose), or 40 mg/70 kg if the MEQ total score in the first session was <0.6. The increased dose of diphenhydramine was 100 mg, regardless of subjective response.
# Study medication was administered at approximately 9 AM, after which participants were required to stay in the session room with the therapists for at least 8 hours (except for bathroom breaks). During the session, participants were encouraged to lie on a couch wearing eyeshades and headphones providing a standardized playlist of music. Medications were available in the session room to treat hypertension, severe anxiety, or psychotic symptoms.
# The pre-specified primary drinking outcome was the percentage of heavy drinking days (PH DD) during […], assessed at weeks 8, 12, 24, and 36 using the timeline followback, a reliable and valid calendar-based method which is the gold standard outcome for AUD clinical trials.^43-47 Secondary outcomes included percent drinking days (PDD), average drinks per day (DPD), and dichotomous outcomes: abstinence, lack of heavy drinking days, and reduction in World Health Organization risk level^48 by one, two, or three levels. Hair or fingernail samples were collected at week 24 and assayed for ethylglucuronide (EtG) concentration to confirm self-reported abstinence. The Short Index of Problems (SIP-2R)^49 was used to assess drinking-related problems at baseline and weeks 12, 24, and 36. […]
# [3] = test system: AUD patients; assay: Subjective effects of study medication, Mystical Experience Questionnaire (MEQ); type: in vivo, human
# Protocol: Subjective effects of psilocybin vs. diphenhydramine were assessed using the States of Consciousness Questionnaire,^42 containing the 43-item Mystical Experience Questionnaire (MEQ), completed immediately after each medication session.
# MEQ scores for the first and second medication sessions were computed and contrasted by group (psilocybin vs. diphenhydramine) using t-tests for independent samples.
# [4] = test system: AUD patients; assay: Safety: blood pressure, heart rate and adverse events in the trial; type: in vivo, human
# Protocol: Blood pressure and heart rate were assessed at 30- to 60-minute intervals during the first 6 hours of each medication session. Adverse events were solicited at each post-screening assessment.
# Blood pressure and heart rate treatment contrasts were based on MMRM with fixed, categorical effects of treatment and assessment, a treatment-by-assessment interaction, and a fixed covariate (value of each outcome prior to drug administration). All adverse events occurring after informed consent were MedDRA-coded and tabulated, and prevalence within treatment groups (proportion of participants affected) was compared using Fisher's exact tests.
# [5] = 32-week double-blind follow-up (weeks 5-36)
# [6] = 32 weeks following the first administration of study medication
# [7] = treatment-emergent, within 48 hours of study drug administration
structure (smiles),measurement,setting,value
"CCN(CC)C(=O)[C@@H]1C=C2c3cccc4[nH]cc(c34)C[C@H]2N(C)C1 [lysergic acid diethylamide (LSD), lysergic acid diethylamide]",Odds ratio of remission during follow-up vs comparator conditions,[1],1.96
"CN(C)CCOC(c1ccccc1)c1ccccc1 [Diphenhydramine, diphenhydramine]","% of Drinking days (PDD), mean",[2]; [5],42.83%
same,"Drinks per day (DPD), mean",[2]; [5],2.26 Drinks per day
same,"% of Heavy drinking days (PHDD), mean",[2],23.57%
same,"% of Heavy drinking days (PHDD), mean",[2]; listed as diphenhydramine,23.6%
same,"Abstinence, % of participants",[2]; Weeks 5-36,(8.9) %
same,"Abstinence, No. of participants",[2]; Weeks 5-36,4
same,"No heavy drinking, % of participants",[2]; Weeks 5-36,(11.1) %
same,"No heavy drinking, No. of participants",[2]; Weeks 5-36,5
same,"WHO risk level Decrease 1, % of participants",[2]; Weeks 5-36,(71.1) %
same,"WHO risk level Decrease 2, % of participants",[2]; Weeks 5-36,(40.0) %
same,"WHO risk level Decrease 2, No. of participants",[2]; Weeks 5-36,18
same,"WHO risk level Decrease 3, % of participants",[2]; Weeks 5-36,(13.3) %
same,"WHO risk level Decrease 3, No. of participants",[2]; Weeks 5-36,6
same,"WHO risk level Decrease 1, No. of participants","[2]; Weeks 5-36, relative to 12 weeks prior to screening",32
same,"Abstinence, % of participants",[2]; Weeks 33-36,(24.4) %
same,"Abstinence, No. of participants",[2]; Weeks 33-36,11
same,"No heavy drinking, % of participants",[2]; Weeks 33-36,(40.0) %
same,"No heavy drinking, No. of participants",[2]; Weeks 33-36,18
same,"WHO risk level Decrease 1, % of participants",[2]; Weeks 33-36,(64.4) %
same,"WHO risk level Decrease 1, No. of participants",[2]; Weeks 33-36,29
same,"WHO risk level Decrease 2, % of participants",[2]; Weeks 33-36,(40.0) %
same,"WHO risk level Decrease 2, No. of participants",[2]; Weeks 33-36,18
same,"WHO risk level Decrease 3, % of participants",[2]; Weeks 33-36,(17.8) %
same,"WHO risk level Decrease 3, No. of participants",[2]; Weeks 33-36,8
same,Mean MEQ score,"[3]; Session 1, psilocybin 25 mg/70 kg or diphenhydramine 50 mg",0.10 (SD=0.13)
same,Mean MEQ score,"[3]; Session 2, psilocybin 25-40 mg/70 kg or diphenhydramine 50-100 mg",0.11 (SD=0.16)
same,"Adverse events reported, number",[4]; [6],85
same,Serious adverse events,[4]; [6],Three
same,"Headaches, participants affected / treated",[4]; [7],2/45
same,"Headaches, percent of participants",[4]; [7],4.4%
